Laboratory results from the NIST ThermoML archive (doi:10.1021/acs.jced.7b00773).
± gives the expanded uncertainty stated by the source.

Conditions: Liquid; for viscosity: Concentric cylinders viscometry

CCCC[N+]1(C)CCCC1.O=S(=O)([N-]S(=O)(=O)C(F)(F)F)C(F)(F)F
100 kPa
Conditions	viscosity [mPa·s]
293.15 K	98.53 ± 4.6
303.15 K	61.87 ± 2.9
313.15 K	41.45 ± 1.9
323.15 K	29.25 ± 1.4
333.15 K	21.53 ± 0.99
343.15 K	16.4 ± 0.76
353.15 K	12.86 ± 0.59
363.15 K	10.33 ± 0.48
373.15 K	8.471 ± 0.39

Conditions	mass density [kg/m3]
293.15 K, 100 kPa, Vibrating tube method	1398.7 ± 3
303.15 K, 100 kPa, Vibrating tube method	1389.8 ± 3
311.6 K, 10000 kPa, Bellows volumetry	1389.1 ± 3.4
311.6 K, 20000 kPa, Bellows volumetry	1396.1 ± 3.4
311.6 K, 30000 kPa, Bellows volumetry	1402.6 ± 3.4
311.6 K, 40000 kPa, Bellows volumetry	1408.7 ± 3.4
311.6 K, 50000 kPa, Bellows volumetry	1414.5 ± 3.4
311.6 K, 60000 kPa, Bellows volumetry	1420.1 ± 3.4
311.6 K, 70000 kPa, Bellows volumetry	1425.5 ± 3.4
311.6 K, 80000 kPa, Bellows volumetry	1430.7 ± 3.4
311.6 K, 90000 kPa, Bellows volumetry	1435.5 ± 3.4
311.6 K, 100000 kPa, Bellows volumetry	1440.4 ± 3.4
311.6 K, 110000 kPa, Bellows volumetry	1445.5 ± 3.4
311.6 K, 120000 kPa, Bellows volumetry	1449.8 ± 3.4
311.6 K, 130000 kPa, Bellows volumetry	1454.3 ± 3.4
311.6 K, 140000 kPa, Bellows volumetry	1458.6 ± 3.4
311.6 K, 150000 kPa, Bellows volumetry	1462.9 ± 3.4
311.6 K, 160000 kPa, Bellows volumetry	1467.2 ± 3.4
311.6 K, 170000 kPa, Bellows volumetry	1471.2 ± 3.4
311.6 K, 180000 kPa, Bellows volumetry	1475.1 ± 3.4
311.6 K, 190000 kPa, Bellows volumetry	1479 ± 3.4
311.6 K, 200000 kPa, Bellows volumetry	1483 ± 3.4
313.15 K, 100 kPa, Vibrating tube method	1381 ± 3
323.15 K, 100 kPa, Vibrating tube method	1372.4 ± 3
331.5 K, 10000 kPa, Bellows volumetry	1372.4 ± 3.4
331.5 K, 20000 kPa, Bellows volumetry	1379.6 ± 3.4
331.5 K, 30000 kPa, Bellows volumetry	1386.5 ± 3.4
331.5 K, 40000 kPa, Bellows volumetry	1393 ± 3.4
331.5 K, 50000 kPa, Bellows volumetry	1399.1 ± 3.4
331.5 K, 60000 kPa, Bellows volumetry	1405 ± 3.4
331.5 K, 70000 kPa, Bellows volumetry	1410.6 ± 3.4
331.5 K, 80000 kPa, Bellows volumetry	1416 ± 3.4
331.5 K, 90000 kPa, Bellows volumetry	1421.3 ± 3.4
331.5 K, 100000 kPa, Bellows volumetry	1426.6 ± 3.4
331.5 K, 110000 kPa, Bellows volumetry	1431.4 ± 3.4
331.5 K, 120000 kPa, Bellows volumetry	1436 ± 3.4
331.5 K, 130000 kPa, Bellows volumetry	1440.6 ± 3.4
331.5 K, 140000 kPa, Bellows volumetry	1445.1 ± 3.4
331.5 K, 150000 kPa, Bellows volumetry	1449.5 ± 3.4
331.5 K, 160000 kPa, Bellows volumetry	1454 ± 3.4
331.5 K, 170000 kPa, Bellows volumetry	1458.1 ± 3.4
331.5 K, 180000 kPa, Bellows volumetry	1462.1 ± 3.4
331.5 K, 190000 kPa, Bellows volumetry	1466.1 ± 3.4
331.5 K, 200000 kPa, Bellows volumetry	1470.2 ± 3.4
333.15 K, 100 kPa, Vibrating tube method	1363.9 ± 3
343.15 K, 100 kPa, Vibrating tube method	1355.5 ± 3
351.6 K, 10000 kPa, Bellows volumetry	1355.8 ± 3.4
351.6 K, 20000 kPa, Bellows volumetry	1363.3 ± 3.4
351.6 K, 30000 kPa, Bellows volumetry	1370.6 ± 3.4
351.6 K, 40000 kPa, Bellows volumetry	1377.4 ± 3.4
351.6 K, 50000 kPa, Bellows volumetry	1383.9 ± 3.4
351.6 K, 60000 kPa, Bellows volumetry	1390 ± 3.4
351.6 K, 70000 kPa, Bellows volumetry	1395.9 ± 3.4
351.6 K, 80000 kPa, Bellows volumetry	1401.7 ± 3.4
351.6 K, 90000 kPa, Bellows volumetry	1407.4 ± 3.4
351.6 K, 100000 kPa, Bellows volumetry	1412.4 ± 3.4
351.6 K, 110000 kPa, Bellows volumetry	1417.5 ± 3.4
351.6 K, 120000 kPa, Bellows volumetry	1422.3 ± 3.4
351.6 K, 130000 kPa, Bellows volumetry	1427.1 ± 3.4
351.6 K, 140000 kPa, Bellows volumetry	1431.7 ± 3.4
351.6 K, 150000 kPa, Bellows volumetry	1436.5 ± 3.4
351.6 K, 160000 kPa, Bellows volumetry	1440.8 ± 3.4
351.6 K, 170000 kPa, Bellows volumetry	1445.1 ± 3.4
351.6 K, 180000 kPa, Bellows volumetry	1449.2 ± 3.4
351.6 K, 190000 kPa, Bellows volumetry	1453.3 ± 3.4
351.6 K, 200000 kPa, Bellows volumetry	1457.4 ± 3.4
353.15 K, 100 kPa, Vibrating tube method	1347.1 ± 3
363.15 K, 100 kPa, Vibrating tube method	1338.7 ± 3
371.6 K, 10000 kPa, Bellows volumetry	1339.4 ± 3.4
371.6 K, 20000 kPa, Bellows volumetry	1347.4 ± 3.4
371.6 K, 30000 kPa, Bellows volumetry	1355.3 ± 3.4
371.6 K, 40000 kPa, Bellows volumetry	1362.4 ± 3.4
371.6 K, 50000 kPa, Bellows volumetry	1369.3 ± 3.4
371.6 K, 60000 kPa, Bellows volumetry	1375.8 ± 3.4
371.6 K, 70000 kPa, Bellows volumetry	1382 ± 3.4
371.6 K, 80000 kPa, Bellows volumetry	1387.9 ± 3.4
371.6 K, 90000 kPa, Bellows volumetry	1393.8 ± 3.4
371.6 K, 100000 kPa, Bellows volumetry	1399 ± 3.4
371.6 K, 110000 kPa, Bellows volumetry	1404.3 ± 3.4
371.6 K, 120000 kPa, Bellows volumetry	1409.6 ± 3.4
371.6 K, 130000 kPa, Bellows volumetry	1414.5 ± 3.4
371.6 K, 140000 kPa, Bellows volumetry	1419.3 ± 3.4
371.6 K, 150000 kPa, Bellows volumetry	1424 ± 3.4
371.6 K, 160000 kPa, Bellows volumetry	1428.4 ± 3.4
371.6 K, 170000 kPa, Bellows volumetry	1433 ± 3.4
371.6 K, 180000 kPa, Bellows volumetry	1437.4 ± 3.4
371.6 K, 190000 kPa, Bellows volumetry	1441.6 ± 3.4
371.6 K, 200000 kPa, Bellows volumetry	1445.7 ± 3.4
373.15 K, 100 kPa, Vibrating tube method	1329.8 ± 3
391.6 K, 10000 kPa, Bellows volumetry	1323.3 ± 3.4
391.6 K, 20000 kPa, Bellows volumetry	1331.9 ± 3.4
391.6 K, 30000 kPa, Bellows volumetry	1340.1 ± 3.4
391.6 K, 40000 kPa, Bellows volumetry	1347.7 ± 3.4
391.6 K, 50000 kPa, Bellows volumetry	1354.8 ± 3.4
391.6 K, 60000 kPa, Bellows volumetry	1361.5 ± 3.4
391.6 K, 70000 kPa, Bellows volumetry	1368.2 ± 3.4
391.6 K, 80000 kPa, Bellows volumetry	1374.3 ± 3.4
391.6 K, 90000 kPa, Bellows volumetry	1380.3 ± 3.4
391.6 K, 100000 kPa, Bellows volumetry	1385.9 ± 3.4
391.6 K, 110000 kPa, Bellows volumetry	1391.3 ± 3.4
391.6 K, 120000 kPa, Bellows volumetry	1396.9 ± 3.4
391.6 K, 130000 kPa, Bellows volumetry	1401.9 ± 3.4
391.6 K, 140000 kPa, Bellows volumetry	1406.8 ± 3.4
391.6 K, 150000 kPa, Bellows volumetry	1411.5 ± 3.4
391.6 K, 160000 kPa, Bellows volumetry	1416.3 ± 3.4
391.6 K, 170000 kPa, Bellows volumetry	1420.8 ± 3.4
391.6 K, 180000 kPa, Bellows volumetry	1425.3 ± 3.4
391.6 K, 190000 kPa, Bellows volumetry	1429.7 ± 3.4
391.6 K, 200000 kPa, Bellows volumetry	1434 ± 3.4
411.3 K, 10000 kPa, Bellows volumetry	1307.4 ± 3.4
411.3 K, 20000 kPa, Bellows volumetry	1316.7 ± 3.4
411.3 K, 30000 kPa, Bellows volumetry	1325.3 ± 3.4
411.3 K, 40000 kPa, Bellows volumetry	1333.4 ± 3.4
411.3 K, 50000 kPa, Bellows volumetry	1341 ± 3.4
411.3 K, 60000 kPa, Bellows volumetry	1348 ± 3.4
411.3 K, 70000 kPa, Bellows volumetry	1354.7 ± 3.4
411.3 K, 80000 kPa, Bellows volumetry	1361.2 ± 3.4
411.3 K, 90000 kPa, Bellows volumetry	1367.3 ± 3.4
411.3 K, 100000 kPa, Bellows volumetry	1373.4 ± 3.4
411.3 K, 110000 kPa, Bellows volumetry	1379 ± 3.4
411.3 K, 120000 kPa, Bellows volumetry	1384.4 ± 3.4
411.3 K, 130000 kPa, Bellows volumetry	1389.7 ± 3.4
411.3 K, 140000 kPa, Bellows volumetry	1394.9 ± 3.4
411.3 K, 150000 kPa, Bellows volumetry	1400 ± 3.4
411.3 K, 160000 kPa, Bellows volumetry	1404.8 ± 3.4
411.3 K, 170000 kPa, Bellows volumetry	1409.4 ± 3.4
411.3 K, 180000 kPa, Bellows volumetry	1414.1 ± 3.4
411.3 K, 190000 kPa, Bellows volumetry	1418.5 ± 3.4
411.3 K, 200000 kPa, Bellows volumetry	1422.8 ± 3.4
